Assay results from ChEMBL document CHEMBL4507267 (2021).

Tests used:
[1] = tested on: Tyrosine-protein kinase ABL1 (Homo sapiens), P00519 [F317I]; settings: Compound concentration 1000.0 nM
[2] = tested on: Tyrosine-protein kinase ABL1 (Homo sapiens), P00519 [M351T]; settings: Compound concentration 1000.0 nM
[3] = tested on: Tyrosine-protein kinase ABL1 (Homo sapiens), P00519 [T315I]; settings: Compound concentration 1000.0 nM
[4] = target: RAC-alpha serine/threonine-protein kinase (Homo sapiens) (UniProt P31749); settings: Compound concentration 1000.0 nM
[5] = target: Calcium/calmodulin-dependent protein kinase type 1 (Homo sapiens) (UniProt Q14012); settings: Compound concentration 1000.0 nM
[6] = target: Calcium/calmodulin-dependent protein kinase type 1B (Homo sapiens) (UniProt Q6P2M8); settings: Compound concentration 1000.0 nM
[7] = target: Citron Rho-interacting kinase (Homo sapiens) (UniProt O14578); settings: Compound concentration 1000.0 nM
[8] = target: Dual specificity protein kinase CLK3 (Homo sapiens) (UniProt P49761); settings: Compound concentration 1000.0 nM
[9] = target: Ephrin type-A receptor 3 (Homo sapiens) (UniProt P29320); settings: Compound concentration 1000.0 nM
[10] = target: Ephrin type-B receptor 6 (Homo sapiens) (UniProt O15197); settings: Compound concentration 1000.0 nM
[11] = target: Receptor tyrosine-protein kinase erbB-2 (Homo sapiens) (UniProt P04626); settings: Compound concentration 1000.0 nM
[12] = target: Mitogen-activated protein kinase 3 (Homo sapiens) (UniProt P27361); settings: Compound concentration 1000.0 nM
[13] = target: Vascular endothelial growth factor receptor 1 (Homo sapiens) (UniProt P17948); settings: Compound concentration 1000.0 nM
[14] = target: Vascular endothelial growth factor receptor 3 (Homo sapiens) (UniProt P35916); settings: Compound concentration 1000.0 nM
[15] = target: Tyrosine-protein kinase FRK (Homo sapiens) (UniProt P42685); settings: Compound concentration 1000.0 nM
[16] = target: Cyclin-G-associated kinase (Homo sapiens) (UniProt O14976); settings: Compound concentration 1000.0 nM
[17] = target: G protein-coupled receptor kinase 4 (Homo sapiens) (UniProt P32298); settings: Compound concentration 1000.0 nM
[18] = target: Homeodomain-interacting protein kinase 1 (Homo sapiens) (UniProt Q86Z02); settings: Compound concentration 1000.0 nM
[19] = target: Homeodomain-interacting protein kinase 3 (Homo sapiens) (UniProt Q9H422); settings: Compound concentration 1000.0 nM
[20] = target: Mitogen-activated protein kinase kinase kinase kinase 1 (Homo sapiens) (UniProt Q92918); settings: Compound concentration 1000.0 nM
[21] = target: Insulin receptor (Homo sapiens) (UniProt P06213); settings: Compound concentration 1000.0 nM
[22] = target: Insulin receptor-related protein (Homo sapiens) (UniProt P14616); settings: Compound concentration 1000.0 nM
[23] = target: Mitogen-activated protein kinase 10 (Homo sapiens) (UniProt P53779); settings: Compound concentration 1000.0 nM
[24] = target: Serine/threonine-protein kinase STK11 (Homo sapiens) (UniProt Q15831); settings: Compound concentration 1000.0 nM
[25] = target: Mitogen-activated protein kinase kinase kinase 3 (Homo sapiens) (UniProt Q99759); settings: Compound concentration 1000.0 nM
[26] = target: Mitogen-activated protein kinase kinase kinase kinase 2 (Homo sapiens) (UniProt Q12851); settings: Compound concentration 1000.0 nM
[27] = target: Microtubule-associated serine/threonine-protein kinase 1 (Homo sapiens) (UniProt Q9Y2H9); settings: Compound concentration 1000.0 nM
[28] = target: Dual specificity mitogen-activated protein kinase kinase 5 (Homo sapiens) (UniProt Q13163); settings: Compound concentration 1000.0 nM
[29] = target: MAP kinase-interacting serine/threonine-protein kinase 2 (Homo sapiens) (UniProt Q9HBH9); settings: Compound concentration 1000.0 nM
[30] = target: Myosin light chain kinase, smooth muscle (Homo sapiens) (UniProt Q15746); settings: Compound concentration 1000.0 nM
[31] = target: Serine/threonine-protein kinase 38 (Homo sapiens) (UniProt Q15208); settings: Compound concentration 1000.0 nM
[32] = target: Serine/threonine-protein kinase Nek2 (Homo sapiens) (UniProt P51955); settings: Compound concentration 1000.0 nM
[33] = target: Serine/threonine-protein kinase Nek3 (Homo sapiens) (UniProt P51956); settings: Compound concentration 1000.0 nM
[34] = target: Mitogen-activated protein kinase kinase kinase 14 (Homo sapiens) (UniProt Q99558); settings: Compound concentration 1000.0 nM
[35] = target: Cyclin-dependent kinase 16 (Homo sapiens) (UniProt Q00536); settings: Compound concentration 1000.0 nM
[36] = target: cAMP-dependent protein kinase catalytic subunit alpha (Homo sapiens) (UniProt P17612); settings: Compound concentration 1000.0 nM
[37] = target: Serine/threonine-protein kinase N1 (Homo sapiens) (UniProt Q16512); settings: Compound concentration 1000.0 nM
[38] = target: Protein kinase C theta type (Homo sapiens) (UniProt Q04759); settings: Compound concentration 1000.0 nM
[39] = target: Receptor-interacting serine/threonine-protein kinase 2 (Homo sapiens) (UniProt O43353); settings: Compound concentration 1000.0 nM
[40] = target: TGF-beta receptor type-1 (Homo sapiens) (UniProt P36897); settings: Compound concentration 1000.0 nM
[41] = target: Serine/threonine-protein kinase 32A (Homo sapiens) (UniProt Q8WU08); settings: Compound concentration 1000.0 nM
[42] = target: Tyrosine-protein kinase Yes (Homo sapiens) (UniProt P07947); settings: Compound concentration 1000.0 nM
[43] = target: 5-hydroxytryptamine receptor 1A (Homo sapiens) (UniProt P08908); settings: Compound concentration 10.0 uM
[44] = target: 5-hydroxytryptamine receptor 2A (Homo sapiens) (UniProt P28223); settings: Compound concentration 10.0 uM
[45] = target: D(1B) dopamine receptor (Homo sapiens) (UniProt P21918); settings: Compound concentration 10.0 uM
[46] = target: Alpha-1B adrenergic receptor (Homo sapiens) (UniProt P35368); settings: Compound concentration 10.0 uM
Sequence of Alpha-1B adrenergic receptor (Homo sapiens) (P35368 whole entry): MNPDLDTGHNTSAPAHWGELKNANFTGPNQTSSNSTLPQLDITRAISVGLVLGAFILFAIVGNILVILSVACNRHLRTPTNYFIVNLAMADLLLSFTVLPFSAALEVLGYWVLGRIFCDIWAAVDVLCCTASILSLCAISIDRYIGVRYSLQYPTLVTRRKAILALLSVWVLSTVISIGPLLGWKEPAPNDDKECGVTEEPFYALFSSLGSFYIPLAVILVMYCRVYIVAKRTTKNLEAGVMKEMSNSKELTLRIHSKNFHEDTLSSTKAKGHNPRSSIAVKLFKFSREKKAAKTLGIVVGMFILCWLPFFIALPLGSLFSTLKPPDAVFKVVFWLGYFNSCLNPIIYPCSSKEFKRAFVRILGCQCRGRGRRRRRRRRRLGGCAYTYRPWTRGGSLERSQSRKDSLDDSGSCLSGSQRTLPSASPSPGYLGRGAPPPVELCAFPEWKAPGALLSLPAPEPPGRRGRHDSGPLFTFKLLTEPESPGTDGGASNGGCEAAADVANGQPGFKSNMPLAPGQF

Sequence of Mitogen-activated protein kinase 10 (Homo sapiens) (P53779 whole entry): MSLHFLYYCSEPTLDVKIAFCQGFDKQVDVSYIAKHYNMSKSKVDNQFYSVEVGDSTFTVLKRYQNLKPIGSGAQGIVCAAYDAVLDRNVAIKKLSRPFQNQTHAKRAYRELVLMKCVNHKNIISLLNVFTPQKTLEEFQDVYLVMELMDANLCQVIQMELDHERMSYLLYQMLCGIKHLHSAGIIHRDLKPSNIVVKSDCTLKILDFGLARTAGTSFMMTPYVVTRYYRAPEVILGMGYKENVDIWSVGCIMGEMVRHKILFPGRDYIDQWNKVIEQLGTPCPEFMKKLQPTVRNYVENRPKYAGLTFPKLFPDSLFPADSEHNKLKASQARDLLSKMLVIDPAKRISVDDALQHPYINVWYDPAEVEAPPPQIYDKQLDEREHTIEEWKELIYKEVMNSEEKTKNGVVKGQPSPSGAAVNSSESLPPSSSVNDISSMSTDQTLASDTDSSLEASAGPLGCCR
Sequence of Citron Rho-interacting kinase (Homo sapiens) (O14578 whole entry): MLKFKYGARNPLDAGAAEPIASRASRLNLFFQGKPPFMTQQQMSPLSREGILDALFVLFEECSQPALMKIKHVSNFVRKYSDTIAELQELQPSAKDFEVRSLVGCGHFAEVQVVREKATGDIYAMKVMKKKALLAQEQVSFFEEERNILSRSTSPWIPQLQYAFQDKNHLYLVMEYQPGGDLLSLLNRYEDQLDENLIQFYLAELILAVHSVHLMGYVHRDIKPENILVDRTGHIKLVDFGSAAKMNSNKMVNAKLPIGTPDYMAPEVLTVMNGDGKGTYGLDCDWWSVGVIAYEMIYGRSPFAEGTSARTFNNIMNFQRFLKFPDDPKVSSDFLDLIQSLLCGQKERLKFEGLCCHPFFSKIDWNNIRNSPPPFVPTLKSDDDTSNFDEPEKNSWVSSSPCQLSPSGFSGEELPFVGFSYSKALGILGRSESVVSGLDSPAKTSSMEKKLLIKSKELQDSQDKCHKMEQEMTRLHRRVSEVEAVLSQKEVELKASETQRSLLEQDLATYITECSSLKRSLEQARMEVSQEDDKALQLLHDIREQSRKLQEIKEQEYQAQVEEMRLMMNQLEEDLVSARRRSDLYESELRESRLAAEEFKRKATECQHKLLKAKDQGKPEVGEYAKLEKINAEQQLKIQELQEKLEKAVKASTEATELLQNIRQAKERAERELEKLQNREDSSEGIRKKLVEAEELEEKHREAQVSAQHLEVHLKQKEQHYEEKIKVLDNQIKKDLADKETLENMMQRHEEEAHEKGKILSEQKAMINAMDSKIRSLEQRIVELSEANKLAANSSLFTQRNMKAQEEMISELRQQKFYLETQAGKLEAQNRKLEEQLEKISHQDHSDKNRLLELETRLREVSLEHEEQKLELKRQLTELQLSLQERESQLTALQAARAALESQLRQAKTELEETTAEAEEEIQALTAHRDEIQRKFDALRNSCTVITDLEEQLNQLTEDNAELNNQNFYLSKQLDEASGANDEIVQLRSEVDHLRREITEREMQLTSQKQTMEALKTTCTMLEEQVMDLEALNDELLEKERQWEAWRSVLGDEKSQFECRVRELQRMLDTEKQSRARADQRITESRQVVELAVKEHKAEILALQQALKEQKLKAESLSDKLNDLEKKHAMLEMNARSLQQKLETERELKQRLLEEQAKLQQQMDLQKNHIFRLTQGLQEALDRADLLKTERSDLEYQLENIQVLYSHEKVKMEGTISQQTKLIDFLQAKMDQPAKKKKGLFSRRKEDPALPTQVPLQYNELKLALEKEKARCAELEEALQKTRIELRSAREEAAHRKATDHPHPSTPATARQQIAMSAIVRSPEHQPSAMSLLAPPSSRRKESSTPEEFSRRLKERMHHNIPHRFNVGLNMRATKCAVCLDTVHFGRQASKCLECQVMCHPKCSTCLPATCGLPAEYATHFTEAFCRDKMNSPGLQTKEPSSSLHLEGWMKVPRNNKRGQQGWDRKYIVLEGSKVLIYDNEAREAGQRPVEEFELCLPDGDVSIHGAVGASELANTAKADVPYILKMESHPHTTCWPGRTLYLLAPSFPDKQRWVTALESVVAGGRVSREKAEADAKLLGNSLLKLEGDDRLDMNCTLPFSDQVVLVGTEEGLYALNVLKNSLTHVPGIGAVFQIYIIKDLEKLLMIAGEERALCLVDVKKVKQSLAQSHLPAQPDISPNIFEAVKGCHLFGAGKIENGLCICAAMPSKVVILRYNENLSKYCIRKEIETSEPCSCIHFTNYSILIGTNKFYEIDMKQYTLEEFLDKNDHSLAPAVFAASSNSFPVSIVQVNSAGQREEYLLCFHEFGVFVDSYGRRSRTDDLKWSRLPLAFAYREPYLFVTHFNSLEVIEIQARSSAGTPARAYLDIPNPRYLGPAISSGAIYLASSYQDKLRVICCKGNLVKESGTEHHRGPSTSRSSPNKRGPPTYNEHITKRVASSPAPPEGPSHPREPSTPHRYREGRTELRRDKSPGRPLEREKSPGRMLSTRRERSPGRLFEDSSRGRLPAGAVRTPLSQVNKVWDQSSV
Sequence of 5-hydroxytryptamine receptor 1A (Homo sapiens) (P08908 whole entry): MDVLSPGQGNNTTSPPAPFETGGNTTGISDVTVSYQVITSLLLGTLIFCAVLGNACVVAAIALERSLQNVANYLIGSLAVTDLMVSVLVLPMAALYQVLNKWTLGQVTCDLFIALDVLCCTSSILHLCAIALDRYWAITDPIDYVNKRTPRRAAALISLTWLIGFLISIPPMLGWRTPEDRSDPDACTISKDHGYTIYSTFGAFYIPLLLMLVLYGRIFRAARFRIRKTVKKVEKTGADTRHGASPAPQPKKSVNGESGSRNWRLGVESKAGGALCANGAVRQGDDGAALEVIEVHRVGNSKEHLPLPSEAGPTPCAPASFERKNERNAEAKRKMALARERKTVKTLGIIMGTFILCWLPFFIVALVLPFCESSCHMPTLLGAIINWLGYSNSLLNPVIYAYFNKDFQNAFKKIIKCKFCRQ
Sequence of Cyclin-G-associated kinase (Homo sapiens) (O14976 whole entry): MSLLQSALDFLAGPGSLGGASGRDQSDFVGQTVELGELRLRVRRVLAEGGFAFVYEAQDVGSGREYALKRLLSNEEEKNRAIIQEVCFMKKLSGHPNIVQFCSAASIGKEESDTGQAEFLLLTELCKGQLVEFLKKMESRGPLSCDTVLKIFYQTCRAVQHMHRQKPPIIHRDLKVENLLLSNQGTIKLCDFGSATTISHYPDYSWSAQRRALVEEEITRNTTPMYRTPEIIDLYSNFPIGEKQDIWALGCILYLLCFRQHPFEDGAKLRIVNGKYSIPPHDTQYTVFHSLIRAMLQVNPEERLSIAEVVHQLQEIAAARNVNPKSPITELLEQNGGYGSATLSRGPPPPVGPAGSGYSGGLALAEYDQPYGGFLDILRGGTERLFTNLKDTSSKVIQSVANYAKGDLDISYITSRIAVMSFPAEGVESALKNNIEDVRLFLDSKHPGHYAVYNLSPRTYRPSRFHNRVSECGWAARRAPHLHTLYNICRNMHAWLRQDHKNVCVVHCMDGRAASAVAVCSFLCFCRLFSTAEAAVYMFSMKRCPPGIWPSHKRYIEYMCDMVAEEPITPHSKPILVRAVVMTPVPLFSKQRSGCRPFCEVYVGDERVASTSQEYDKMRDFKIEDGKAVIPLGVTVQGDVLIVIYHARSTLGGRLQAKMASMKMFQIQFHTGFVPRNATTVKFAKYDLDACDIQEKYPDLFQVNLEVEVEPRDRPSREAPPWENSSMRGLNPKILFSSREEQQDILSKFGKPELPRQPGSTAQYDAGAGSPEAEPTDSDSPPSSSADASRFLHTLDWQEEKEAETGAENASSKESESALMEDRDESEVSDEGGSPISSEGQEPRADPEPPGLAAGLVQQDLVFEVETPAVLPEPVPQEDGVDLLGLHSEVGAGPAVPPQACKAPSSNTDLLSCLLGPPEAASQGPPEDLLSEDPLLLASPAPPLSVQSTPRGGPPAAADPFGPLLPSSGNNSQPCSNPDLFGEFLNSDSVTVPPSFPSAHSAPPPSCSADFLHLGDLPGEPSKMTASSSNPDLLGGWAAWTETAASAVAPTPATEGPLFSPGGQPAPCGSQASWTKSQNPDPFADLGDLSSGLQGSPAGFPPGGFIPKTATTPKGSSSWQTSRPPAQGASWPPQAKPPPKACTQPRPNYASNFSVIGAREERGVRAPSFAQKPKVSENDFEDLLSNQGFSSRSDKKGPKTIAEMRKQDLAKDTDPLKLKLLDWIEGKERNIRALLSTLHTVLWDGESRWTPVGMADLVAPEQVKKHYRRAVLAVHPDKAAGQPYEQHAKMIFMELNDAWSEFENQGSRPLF
Sequence of Calcium/calmodulin-dependent protein kinase type 1B (Homo sapiens) (Q6P2M8 whole entry): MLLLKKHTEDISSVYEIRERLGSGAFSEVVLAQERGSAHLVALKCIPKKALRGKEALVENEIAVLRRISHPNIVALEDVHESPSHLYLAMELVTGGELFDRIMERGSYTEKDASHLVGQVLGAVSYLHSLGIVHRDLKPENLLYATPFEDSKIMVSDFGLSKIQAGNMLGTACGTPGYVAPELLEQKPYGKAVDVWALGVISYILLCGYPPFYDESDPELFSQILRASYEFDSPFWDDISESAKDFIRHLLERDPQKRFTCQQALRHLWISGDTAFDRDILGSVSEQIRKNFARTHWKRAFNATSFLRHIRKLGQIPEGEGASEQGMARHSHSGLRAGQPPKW

Cc1c(NC(=O)c2cc(C(N)=O)nc3cc(F)ccc23)c(C(F)(F)F)nn1Cc1ccc(C#N)cc1 [BAY-876]
inactive: residual activity [1] 96% | residual activity [2] 87% | residual activity [3] 92% | residual activity [4] 91% | residual activity [5] 100% | residual activity [6] 64% | residual activity [7] 81% | residual activity [8] 100% | residual activity [9] 90% | residual activity [10] 75% | residual activity [11] 100% | residual activity [12] 85% | residual activity [13] 98% | residual activity [14] 100% | residual activity [15] 100% | residual activity [16] 95% | residual activity [17] 100% | residual activity [18] 73% | residual activity [19] 85% | residual activity [20] 100% | residual activity [21] 100% | residual activity [22] 92% | residual activity [23] 85% | residual activity [24] 100% | residual activity [25] 66% | residual activity [26] 88% | residual activity [27] 77% | residual activity [28] 88% | residual activity [29] 92% | residual activity [30] 65% | residual activity [31] 94% | residual activity [32] 100% | residual activity [33] 74% | residual activity [34] 72% | residual activity [35] 100% | residual activity [36] 78% | residual activity [37] 98% | residual activity [38] 80% | residual activity [39] 100% | residual activity [40] 80% | residual activity [41] 89% | residual activity [42] 66% | inhibition [43] -3.47% | inhibition [44] 14.3% | inhibition [45] -0.829% | inhibition [46] -8.82%

Cc1c(NC(=O)c2cc(C(N)=O)nc3cc(F)ccc23)c(C(F)(F)F)nn1Cc1ccc(C(C)(C)C)cc1 [BAY-588]
inactive: residual activity [1] 100% | residual activity [2] 100% | residual activity [3] 85% | residual activity [4] 93% | residual activity [5] 82% | residual activity [6] 100% | residual activity [7] 100% | residual activity [8] 100% | residual activity [9] 98% | residual activity [10] 100% | residual activity [11] 92% | residual activity [12] 100% | residual activity [13] 100% | residual activity [14] 91% | residual activity [15] 90% | residual activity [16] 98% | residual activity [17] 100% | residual activity [18] 92% | residual activity [19] 100% | residual activity [20] 100% | residual activity [21] 100% | residual activity [22] 96% | residual activity [23] 100% | residual activity [24] 100% | residual activity [25] 100% | residual activity [26] 100% | residual activity [27] 100% | residual activity [28] 78% | residual activity [29] 100% | residual activity [30] 97% | residual activity [31] 93% | residual activity [32] 100% | residual activity [33] 100% | residual activity [34] 100% | residual activity [35] 100% | residual activity [36] 87% | residual activity [37] 100% | residual activity [38] 91% | residual activity [39] 93% | residual activity [40] 91% | residual activity [41] 100% | residual activity [42] 100% | inhibition [43] 18.6% | inhibition [44] -0.878% | inhibition [45] 2.96% | inhibition [46] -5.98%
